Data reported in patent publication US20240168030A1, “DIRECT FLUORESCENT GLYCAN LABELING” (BIO-TECHNE CORPORATION, priority 2019, published 2024).

T1: ST6GalNAc4 (Homo sapiens, UniProt Q9H4F1)
T1 construct: purchased R&D Systems (Bio-Techne, Minneapolis, MN)
T1 sequence (Q9H4F1 1-302): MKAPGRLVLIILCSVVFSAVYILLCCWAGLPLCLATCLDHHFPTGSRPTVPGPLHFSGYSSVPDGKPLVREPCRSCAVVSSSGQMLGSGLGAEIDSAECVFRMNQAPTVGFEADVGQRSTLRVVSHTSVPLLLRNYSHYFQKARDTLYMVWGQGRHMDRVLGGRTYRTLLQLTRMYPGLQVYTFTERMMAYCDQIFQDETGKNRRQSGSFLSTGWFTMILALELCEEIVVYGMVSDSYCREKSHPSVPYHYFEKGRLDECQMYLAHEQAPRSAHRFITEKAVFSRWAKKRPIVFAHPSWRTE

T2: ST6Gal1 (Homo sapiens, UniProt P15907)
T2 construct: purchased R&D Systems (Bio-Techne, Minneapolis, MN)
T2 sequence (P15907 1-406): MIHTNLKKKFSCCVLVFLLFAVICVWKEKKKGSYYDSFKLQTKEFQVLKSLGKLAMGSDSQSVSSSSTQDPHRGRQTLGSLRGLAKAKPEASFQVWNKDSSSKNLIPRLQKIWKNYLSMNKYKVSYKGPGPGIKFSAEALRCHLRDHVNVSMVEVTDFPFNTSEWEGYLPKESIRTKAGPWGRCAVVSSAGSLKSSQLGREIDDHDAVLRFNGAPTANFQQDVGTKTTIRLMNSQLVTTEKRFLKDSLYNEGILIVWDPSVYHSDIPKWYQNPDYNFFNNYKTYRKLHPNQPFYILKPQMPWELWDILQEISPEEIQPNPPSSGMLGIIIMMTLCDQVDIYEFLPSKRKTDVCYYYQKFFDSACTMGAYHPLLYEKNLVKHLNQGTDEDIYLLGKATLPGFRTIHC

T3: ST3Gal1 (Homo sapiens, UniProt Q11201)
T3 construct: purchased R&D Systems (Bio-Techne, Minneapolis, MN)
T3 sequence (Q11201 1-340): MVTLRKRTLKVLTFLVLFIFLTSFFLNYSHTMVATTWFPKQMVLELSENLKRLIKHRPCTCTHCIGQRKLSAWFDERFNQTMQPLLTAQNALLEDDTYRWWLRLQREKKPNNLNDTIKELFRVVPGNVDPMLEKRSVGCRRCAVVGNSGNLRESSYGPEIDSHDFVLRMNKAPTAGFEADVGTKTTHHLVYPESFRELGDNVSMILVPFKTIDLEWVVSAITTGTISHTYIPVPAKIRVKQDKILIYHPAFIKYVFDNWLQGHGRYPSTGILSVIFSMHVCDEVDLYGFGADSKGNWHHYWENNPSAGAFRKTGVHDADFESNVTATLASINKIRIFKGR

T4: ST6GalNAc1 (Homo sapiens, UniProt Q9NSC7)
T4 construct: purchased R&D Systems (Bio-Techne, Minneapolis, MN)
T4 sequence (Q9NSC7 1-600): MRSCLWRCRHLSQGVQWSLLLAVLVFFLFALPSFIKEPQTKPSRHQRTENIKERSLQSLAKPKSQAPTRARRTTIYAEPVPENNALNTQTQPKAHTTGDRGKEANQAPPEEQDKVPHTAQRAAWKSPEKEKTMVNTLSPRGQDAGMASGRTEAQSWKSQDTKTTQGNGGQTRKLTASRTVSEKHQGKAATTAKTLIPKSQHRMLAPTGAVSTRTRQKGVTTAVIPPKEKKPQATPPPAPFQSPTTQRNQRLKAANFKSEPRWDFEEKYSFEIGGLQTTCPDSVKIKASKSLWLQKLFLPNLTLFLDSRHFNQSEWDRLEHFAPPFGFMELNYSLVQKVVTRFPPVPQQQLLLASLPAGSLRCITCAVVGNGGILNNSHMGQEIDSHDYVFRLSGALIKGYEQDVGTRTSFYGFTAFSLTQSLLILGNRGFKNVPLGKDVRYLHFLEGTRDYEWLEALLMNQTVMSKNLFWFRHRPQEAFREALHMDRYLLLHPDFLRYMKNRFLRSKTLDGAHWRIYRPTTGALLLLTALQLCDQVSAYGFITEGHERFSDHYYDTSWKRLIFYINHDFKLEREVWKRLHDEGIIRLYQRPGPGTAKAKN

T5: ST6GalNAc2 (Homo sapiens, UniProt Q9UJ37)
T5 sequence (Q9UJ37 1-374): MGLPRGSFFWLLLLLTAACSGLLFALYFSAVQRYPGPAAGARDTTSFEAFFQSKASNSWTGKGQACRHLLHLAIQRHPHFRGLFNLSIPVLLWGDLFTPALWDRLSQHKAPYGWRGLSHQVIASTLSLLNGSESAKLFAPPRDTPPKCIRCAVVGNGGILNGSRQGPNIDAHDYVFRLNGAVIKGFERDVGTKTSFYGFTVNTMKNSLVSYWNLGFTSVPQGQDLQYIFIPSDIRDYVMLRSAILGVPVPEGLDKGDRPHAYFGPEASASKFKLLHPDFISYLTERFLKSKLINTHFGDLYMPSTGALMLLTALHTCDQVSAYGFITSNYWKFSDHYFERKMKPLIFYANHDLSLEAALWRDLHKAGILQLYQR

T6: ST3Gal4 (Homo sapiens, UniProt Q11206)
T6 construct: purchased R&D Systems (Bio-Techne, Minneapolis, MN)
T6 sequence (Q11206 1-333): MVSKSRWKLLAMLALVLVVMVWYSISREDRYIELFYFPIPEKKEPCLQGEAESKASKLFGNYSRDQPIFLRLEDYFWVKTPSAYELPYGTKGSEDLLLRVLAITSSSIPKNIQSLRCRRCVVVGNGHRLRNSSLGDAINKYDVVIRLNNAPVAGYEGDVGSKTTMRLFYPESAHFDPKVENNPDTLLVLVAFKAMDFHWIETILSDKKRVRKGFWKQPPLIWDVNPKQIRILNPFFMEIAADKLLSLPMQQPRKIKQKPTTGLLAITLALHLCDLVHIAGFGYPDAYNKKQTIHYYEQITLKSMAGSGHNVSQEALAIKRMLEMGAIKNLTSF

T7: ST3Gal2 (Homo sapiens, UniProt Q16842)
T7 construct: purchased R&D Systems (Bio-Techne, Minneapolis, MN)
T7 sequence (Q16842 1-350): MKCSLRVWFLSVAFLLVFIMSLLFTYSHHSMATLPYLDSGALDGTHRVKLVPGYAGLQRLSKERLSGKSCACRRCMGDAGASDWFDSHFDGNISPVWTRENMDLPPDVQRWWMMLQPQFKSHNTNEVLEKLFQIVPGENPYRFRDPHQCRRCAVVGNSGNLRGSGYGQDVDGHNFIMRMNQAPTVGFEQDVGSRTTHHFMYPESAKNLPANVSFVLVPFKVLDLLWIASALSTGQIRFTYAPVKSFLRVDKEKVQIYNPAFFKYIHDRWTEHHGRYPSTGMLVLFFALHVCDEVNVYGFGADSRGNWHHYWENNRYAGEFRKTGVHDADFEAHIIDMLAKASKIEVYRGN


Tests used:
[1] = target: T1, ST6GalNAc4; experiment: DFGL with fluorophore-conjugated sialic acid by ST6GalNAc4; assay type: biochemical; design: key to Relative tolerance of the fluorophore by ST6GalNAc4: +++: indicated by + and − signs only; ++: indicated by + and − signs only; indicated by + and − signs only; indicated by + and − signs only; conditions: for Relative tolerance of the fluorophore by ST6GalNAc4: fluorophore-conjugated sialic acid donor, acceptor O-GalNAc, with sialylated terminal Gal, FIG. 2
[2] = target: T2, ST6Gal1; experiment: DFGL with fluorophore-conjugated sialic acid by ST6Gal1; assay type: biochemical; design: key to Relative tolerance of the fluorophore by ST6Gal1: +++: indicated by + and − signs only; ++: indicated by + and − signs only; indicated by + and − signs only; indicated by + and − signs only; conditions: fluorophore-conjugated sialic acid donor; acceptor Gal of N-glycan; fluorescence intensity of labeled fetuin or asialofetuin in FIG. 2
[3] = target: T3, ST3Gal1; experiment: Direct fluorescent glycan labeling (DFGL) with fluorophore-conjugated sialic acid by ST3Gal1; assay type: biochemical; design: key to Relative tolerance of the fluorophore by ST3Gal1: +++: indicated by + and − signs only; ++: indicated by + and − signs only; indicated by + and − signs only; indicated by + and − signs only; conditions: fluorophore-conjugated sialic acid donor; acceptor Gal of Core-1 O-glycan; fluorescence intensity of labeled fetuin or asialofetuin in FIG. 2
[4] = target: T4, ST6GalNAc1; experiment: DFGL with fluorophore-conjugated sialic acid by ST6GalNAc1; assay type: biochemical; design: key: +++: indicated by + and − signs only; ++: indicated by + and − signs only; indicated by + and − signs only; indicated by + and − signs only; conditions: fluorophore-conjugated sialic acid donor; acceptor O-GalNAc, sialylation on terminal Gal is flexible; FIG. 2
[5] = target: T5, ST6GalNAc2; experiment: DFGL with fluorophore-conjugated sialic acid by ST6GalNAc2; assay type: biochemical; design: key: +++: indicated by + and − signs only; ++: indicated by + and − signs only; indicated by + and − signs only; indicated by + and − signs only; conditions: fluorophore-conjugated sialic acid donor; acceptor O-GalNAc, sialylation on terminal Gal is flexible; FIG. 2
[6] = target: T6, ST3Gal4; experiment: DFGL with fluorophore-conjugated sialic acid by ST3Gal4; assay type: biochemical; design: key: +++: indicated by + and − signs only; ++: indicated by + and − signs only; indicated by + and − signs only; indicated by + and − signs only; conditions: fluorophore-conjugated sialic acid donor; acceptor Gal of N-glycan; fluorescence intensity of labeled fetuin or asialofetuin in FIG. 2
[7] = target: T7, ST3Gal2; experiment: DFGL with fluorophore-conjugated sialic acid by ST3Gal2; assay type: biochemical; design: key: +++: indicated by + and − signs only; ++: indicated by + and − signs only; indicated by + and − signs only; indicated by + and − signs only; conditions: fluorophore-conjugated sialic acid donor; acceptor Gal of Core-1 O-glycan; fluorescence intensity of labeled fetuin or asialofetuin in FIG. 2
[8] = tested on: fetuin and asialofetuin; experiment: PNGase F and FUCA1 treatment of labeled fetuin and asialofetuin; assay type: biochemical, bovine; conditions: Cy5, FIG. 18B
Procedure: FIG. 18A-FIG. 18B show characterization of the labeled glycans on fetuin (Fet) and asialofetuin (AF) with PNGase F and FUCA1. FIG. 18A. PNGase F treatment of the labeled samples. […] Fet was labeled by FUT7 (F7) with Alexa Fluor® 488 (blue). Labeled samples were then treated with PNGase F to release the glycans. FIG. 18B. Effect of FUCA1 on the labeling. Samples without or with FUCA1 treatment were labeled by the indicated enzymes with Cy5. All samples were separated on 15% SDS-PAGE and imaged by silver staining, TCE staining and fluorescent imaging as indicated. M, Western blot molecular marker.
For a typical labeling reaction, 1 μg to 5 μg target protein was mixed with 0.2 nmol fluorophore-conjugated GDP-fucose and 0.2 μg of a fucosyltransferase in 30μL 25 mM Tris pH 7.5, 10 mM MnCl2. The mixture was incubated at 37° C. for 30 minutes. […] To release labeled glycans from a glycoprotein, the sample was first denatured by heating at 95° C. for two minutes in the presence of 0.5% SDS and 80 mM β-mercaptoethanol and then renatured with 1% Triton X-100, and finally treated with PNGase F at 10:1 mass ratio at 37° C. for 20 minutes. To release glycans from antibody, a sample was directly treated with Endo S at 10:1 mass ratio at 37° C. for 20 minutes. All samples were separated by sodium dodecyl sulfate—polyacrylamide gel electrophoresis (SDS-PAGE) at volts/cm. […]

| Change of labeling on FUT7 labeled fetuin after the treatment [8] | Molecule | Relative tolerance of the fluorophore by ST6GalNAc4 [1] | Relative tolerance of the fluorophore by ST6Gal1 [2] | Relative tolerance of the fluorophore by ST3Gal1 [3] | Relative tolerance of the fluorophore by ST6GalNAc1 [4] | Relative tolerance of the fluorophore by ST6GalNAc2 [5] | Relative tolerance of the fluorophore by ST3Gal4 [6] | Relative tolerance of the fluorophore by ST3Gal2 [7] | Fluorophore preference of ST6GalNAc4 ([1]; Alexa Fluor® 555 over Cy5, FIG. 2) |
| --- | --- | --- | --- | --- | --- | --- | --- | --- | --- |
|  | cytidine monophosphate activated Alexa-Fluor®488-conjugated sialic acid [CMP-AF488-SA] | + | +++ | + | ++ | − | + | +++ |  |
|  | cytidine monophosphate activated Alexa-Fluor® 555-conjugated sialic acid [CMP-AF555-SA] | +++ | ++ | ++ | ++ | + | ++ | +++ | strong preference |
| two-fold increase | FUCA1: a lysosomal enzyme that hydrolyze α-fucose residues from glycans (protein, UniProt P04066 32-466, looked up) Tissue alpha-L-fucosidase: QPPRRYTPDWPSLDSRPLPAWFDEAKFGVFIHWGVFSVPAWGSEWFWWHWQGEGRPQYQRFMRDNYPPGFSYADFGPQFTARFFHPEEWADLFQAAGAKYVVLTTKHHEGFTNWPSPVSWNWNSKDVGPHRDLVGELGTALRKRNIRYGLYHSLLEWFHPLYLLDKKNGFKTQHFVSAKTMPELYDLVNSYKPDLIWSDGEWECPDTYWNSTNFLSWLYNDSPVKDEVVVNDRWGQNCSCHHGGYYNCEDKFKPQSLPDHKWEMCTSIDKFSWGYRRDMALSDVTEESEIISELVQTVSLGGNYLLNIGPTKDGLIVPIFQERLLAVGKWLSINGEAIYASKPWRVQWEKNTTSVWYTSKGSAVYAIFLHWPENGVLNLESPITTSTTKITMLGIQGDLKWSTDPDKGLFISLPQLPPSAVPAEFAWTIKLTGVK |  |  |  |  |  |  |  |  |
